Assay results taken from patent US11827629B2, “CDGSH iron sulfur domain 2 activators and use thereof” (National Health Research Institutes, priority 2021, dated 2023).

Assays:
Cisd2 hKO-het mice = experiment: In vivo NAFLD study in Cisd2 hKO-het mice (histopathology, serum biochemistry); settings: Cisd2 hKO-het male mice, 0.015 wt % in diet for 4 weeks
Description: Compound 28 of this invention was evaluated for its anti-nonalcoholic fatty liver disease (NAFLD) effect and in vivo toxicity following an assay described below.
Cisd2 floxed allele (Cisd2 f/f) mice were prepared following a procedure described in Wang et al., Hum. Mol. Genet. 23, 4770-85(2014). To obtain Cisd2 heterozygous hepatocyte-specific knockout (Cisd2 hKO-het, Cisd2 f/+; Alb-Cre Tg), Cisd2 f/f mice were bred with Albumin-Cre transgenic (Alb-Cre Tg, JAX003574) mice. After one generation, Cisd2 hKO-het mice were obtained. Male mice were chosen to be used in this study. All mice have a pure or congenic C57BL/6 background and were bred/housed in a specific pathogen-free facility with a 12 h light/12 h dark cycle at a temperature of 20-22° C. Groups of mice at 8 weeks old were provided a diet (AIN93G, TestDiet) containing a vehicle (0.14 wt % of DMF and 0.15 wt % of Cremophor® EL) or compound 28 (0.015 wt %) for 4 weeks.
Histopathology was used to evaluate the efficacy of Compound 28 in ameliorating NAFLD. Liver tissues were collected and fixed with 10% formalin at 4° C. overnight. They were then processed in a tissue processor (STP120, MICROM), followed by embedding in paraffin. H&E of tissue sections (3-4 m) were carried out by a standard protocol. […]

Cisd2 hKO male mice = experiment: In vivo fructose-induced NASH model in Cisd2 hKO mice (histopathology, GTT, ITT); settings: 0.015 wt % in diet for 5 months
Excerpt: Compound 28 was used to alleviate nonalcoholic steatohepatitis (NASH) in Cisd2 hKO male mice described above.
Cisd2 hKO were bred for two generations. […] They were fed 30% (w/v) fructose (Alfa Aesar A17718) in water to establish a fructose-induced NASH model. Groups of mice at 2 months old were provided with a diet (AIN93G, TestDiet) containing a vehicle (0.14 wt % of DMF and 0.15 wt % of Cremophor® EL) or Compound 28 (0.015 wt %) for 5 months. The food and drinking water were provided ad libitum.
Histopathology was used to evaluate the efficacy of Compound 28 in alleviating NASH. Liver tissues were processed and stained as described in Example 53 above.
An oral glucose tolerance test (GTT) and an insulin tolerance test (ITT) were performed to study beneficial effects of Compound 28 in the fructose-induced NASH model. In the oral glucose tolerance test, mice were fasted for 14 hours (7 p.m. to 9 a.m.) and then were orally administrated with glucose water (1.5 mg/g body weight) using a feeding needle. Blood samples were collected from tail vein before (0 min) and after glucose treatment at predetermined time points. Blood glucose levels were measured using OneTouch® Ultra glucose test strips and SureStep® Meter (LifeScan). In the insulin tolerance test, mice were fasted for 2 hours (9 a.m. to 11 a.m.) and then intraperitoneally injected with insulin (0.75 U/kg body weight) (Actrapid® human regular insulin, Novo Nordisk). Blood samples were collected and monitored at predetermined time points.

O=C(CS(=O)(=O)c1nccs1)N1Cc2ccccc2C1 [Compound 28, 1-(1,3-dihydro-2H-isoindol-2-yl)-2-(1,3-thiazol-2-ylsulfonyl)ethanone]
anti-nonalcoholic fatty liver disease (NAFLD) effect (Cisd2 hKO-het mice; liver histopathology): ameliorated NAFLD in Cisd2 hKO-het mice
in vivo toxicity (Cisd2 hKO-het mice; serum ALT, AST, BUN, CRE): without observed toxicity
effect on fructose-induced NASH (Cisd2 hKO male mice; Cisd2 hKO male mice, 30% fructose in water, liver histopathology): ameliorate fructose-induced NASH
toxicity (Cisd2 hKO male mice; fructose-induced NASH model): without obvious toxicity
effect on fructose-induced insulin resistance (Cisd2 hKO male mice; insulin tolerance test): alleviate fructose-induced glucose intolerance and insulin resistance
effect on fructose-induced glucose intolerance (Cisd2 hKO male mice; oral glucose tolerance test): alleviate fructose-induced glucose intolerance
